Measured values: patent US20190125646A1, “ORAL COMPOSITION FOR TOOTH WHITENING PRODUCT, AND KIT COMPRISING SAME” (LG HOUSEHOLD & HEALTH CARE LTD., priority 2013, published 2019)
Entries after “also recorded” stand apart in the source; their conditions may differ.

What was measured:
[1] = Brightness variation (Experimental Example 4); settings: gel first agent plus hydrogen peroxide 3.0% patch on stained HAP disk, removed after 1 hour; FIG. 4
Method: Comparative examples 3 through 8 and example 5 were each attached to a stained HAP disk and were removed after 1 hour, and variations relative to initial brightness were measured and were indicated as ΔL.

[2] = Survey evaluation related to irritation (Experimental Example 3); assay type: in vivo; settings: subjects' own evaluation after use, score 0-3; FIG. 3
Source text: After using comparative example 2 and examples 1 and 2, each subject was allowed to evaluate the degree of irritation on a 3-point scale according to the following evaluation criteria.
2: Certainly sensible irritation.
3: Stop using due to irritation

Row | Molecule | whitening effect (variation relative to initial brightness, ΔL) [1] | degree of irritation (survey, 3-point scale) [2]
1 | iron chloride | highest tooth whitening effect; also recorded: remarkably superior effect than other metal ions | more severe
2 | NCCS(=O)(=O)O [taurine] | – | significantly reduced
